From ChEMBL document CHEMBL1201862, “PubChem BioAssay data set” (2004)
Activity calls are given as the source filed them.

Columns and labels:
[1] = biological target: Bifunctional protein GlmU (Mycobacterium tuberculosis, UniProt P9WMN3); assay: Inhibitors of Mycobacterial Glucosamine-1-phosphate acetyl transferase (GlmU). Secondary screen.; set-up: species or system Mycobacterium tuberculosis H37Rv
[2] = biological target: Neurotensin receptor type 1 (Homo sapiens, UniProt P30989); type: functional;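 also: Image-based confirmatory dose-response assay measuring agonist activity at NTR1; NTR1-expressing U2OS osteosarcoma cells imaged for beta-arrestin GFP spot formation; agonist potency where compounds increase beta-arrestin recruitment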
Sequence of Neurotensin receptor type 1 (P30989 whole entry): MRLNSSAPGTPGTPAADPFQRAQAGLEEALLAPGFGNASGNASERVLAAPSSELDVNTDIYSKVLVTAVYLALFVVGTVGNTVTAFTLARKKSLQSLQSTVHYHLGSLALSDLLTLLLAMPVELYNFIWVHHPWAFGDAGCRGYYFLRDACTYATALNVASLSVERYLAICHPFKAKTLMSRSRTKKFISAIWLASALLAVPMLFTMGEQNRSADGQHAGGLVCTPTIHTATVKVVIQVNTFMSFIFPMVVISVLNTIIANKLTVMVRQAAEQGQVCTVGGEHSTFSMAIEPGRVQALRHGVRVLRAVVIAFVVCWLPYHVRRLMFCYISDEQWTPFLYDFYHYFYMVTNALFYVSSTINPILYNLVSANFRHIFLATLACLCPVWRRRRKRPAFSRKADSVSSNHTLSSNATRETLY

[3] = biological target: Lysine-specific demethylase 4C (Homo sapiens, UniProt Q9H3R0); assay: GASC-1 (JMJD2C) histone demethylase inhibitors, dose response, biochemical, DELFIA europium, cherry-picked samples (AID 488835); type: functional
Sequence of Lysine-specific demethylase 4C (Q9H3R0 whole entry): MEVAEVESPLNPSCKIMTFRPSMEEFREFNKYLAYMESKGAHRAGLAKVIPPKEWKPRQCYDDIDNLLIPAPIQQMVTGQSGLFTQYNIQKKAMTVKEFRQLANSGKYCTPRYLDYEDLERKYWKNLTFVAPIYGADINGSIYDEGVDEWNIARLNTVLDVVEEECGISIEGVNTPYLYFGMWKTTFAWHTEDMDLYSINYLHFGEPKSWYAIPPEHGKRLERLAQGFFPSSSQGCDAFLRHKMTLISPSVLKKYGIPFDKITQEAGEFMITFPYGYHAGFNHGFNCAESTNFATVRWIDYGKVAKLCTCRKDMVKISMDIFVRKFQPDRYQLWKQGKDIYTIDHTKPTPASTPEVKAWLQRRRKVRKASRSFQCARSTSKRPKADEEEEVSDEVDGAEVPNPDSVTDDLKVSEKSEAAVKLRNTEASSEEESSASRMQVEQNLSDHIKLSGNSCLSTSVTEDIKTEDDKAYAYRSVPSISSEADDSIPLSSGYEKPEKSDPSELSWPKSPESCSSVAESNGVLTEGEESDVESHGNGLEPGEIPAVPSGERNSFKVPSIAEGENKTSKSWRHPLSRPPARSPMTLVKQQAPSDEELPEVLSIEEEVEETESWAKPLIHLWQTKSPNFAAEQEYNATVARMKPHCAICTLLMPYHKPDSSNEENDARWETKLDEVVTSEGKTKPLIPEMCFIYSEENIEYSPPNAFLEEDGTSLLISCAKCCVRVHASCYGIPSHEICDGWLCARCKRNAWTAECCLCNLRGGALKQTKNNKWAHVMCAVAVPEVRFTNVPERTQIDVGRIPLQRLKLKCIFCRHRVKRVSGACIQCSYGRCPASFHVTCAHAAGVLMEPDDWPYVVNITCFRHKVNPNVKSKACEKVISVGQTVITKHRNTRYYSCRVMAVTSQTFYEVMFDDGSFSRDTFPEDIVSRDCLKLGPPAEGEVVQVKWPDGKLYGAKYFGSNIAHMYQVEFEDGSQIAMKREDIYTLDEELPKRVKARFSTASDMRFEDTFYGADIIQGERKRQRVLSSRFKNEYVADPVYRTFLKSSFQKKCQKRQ

[4] = biological target: Genome polyprotein (dengue virus type 2, UniProt P29990); assay: Dengue-2 NS5 methyltransferase inhibitors, primary screen, biochemical, confirmation dose response (AID 588689); type: functional
Sequence of Genome polyprotein (P29990 2492-3391 limits assumed): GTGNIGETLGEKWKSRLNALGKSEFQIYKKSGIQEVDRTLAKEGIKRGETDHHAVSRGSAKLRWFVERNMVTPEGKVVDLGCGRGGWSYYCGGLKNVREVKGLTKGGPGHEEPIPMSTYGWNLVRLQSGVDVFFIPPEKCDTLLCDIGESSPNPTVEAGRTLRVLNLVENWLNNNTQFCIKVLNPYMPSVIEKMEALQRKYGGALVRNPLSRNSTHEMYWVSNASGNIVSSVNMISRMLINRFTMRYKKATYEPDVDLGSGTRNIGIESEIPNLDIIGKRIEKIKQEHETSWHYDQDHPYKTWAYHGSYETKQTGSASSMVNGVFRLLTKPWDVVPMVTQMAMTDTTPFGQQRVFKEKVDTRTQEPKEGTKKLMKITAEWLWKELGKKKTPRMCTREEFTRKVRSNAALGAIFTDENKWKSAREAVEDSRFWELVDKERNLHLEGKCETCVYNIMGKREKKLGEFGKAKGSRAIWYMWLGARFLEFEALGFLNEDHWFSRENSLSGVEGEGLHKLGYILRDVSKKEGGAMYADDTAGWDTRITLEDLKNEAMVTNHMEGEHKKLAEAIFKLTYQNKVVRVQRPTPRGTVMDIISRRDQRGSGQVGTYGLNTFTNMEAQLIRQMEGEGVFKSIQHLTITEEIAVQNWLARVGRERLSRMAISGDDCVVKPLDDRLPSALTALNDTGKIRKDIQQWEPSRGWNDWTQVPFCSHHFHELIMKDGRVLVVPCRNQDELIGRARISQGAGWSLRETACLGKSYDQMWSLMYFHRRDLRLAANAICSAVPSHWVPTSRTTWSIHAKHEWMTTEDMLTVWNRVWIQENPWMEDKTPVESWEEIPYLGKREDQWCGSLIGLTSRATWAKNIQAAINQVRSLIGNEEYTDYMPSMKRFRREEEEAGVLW

[5] = biological target: T1, Tyrosine-protein phosphatase non-receptor type 7 (Homo sapiens, UniProt P35236); type: functional
T1 sequence (P35236 whole entry): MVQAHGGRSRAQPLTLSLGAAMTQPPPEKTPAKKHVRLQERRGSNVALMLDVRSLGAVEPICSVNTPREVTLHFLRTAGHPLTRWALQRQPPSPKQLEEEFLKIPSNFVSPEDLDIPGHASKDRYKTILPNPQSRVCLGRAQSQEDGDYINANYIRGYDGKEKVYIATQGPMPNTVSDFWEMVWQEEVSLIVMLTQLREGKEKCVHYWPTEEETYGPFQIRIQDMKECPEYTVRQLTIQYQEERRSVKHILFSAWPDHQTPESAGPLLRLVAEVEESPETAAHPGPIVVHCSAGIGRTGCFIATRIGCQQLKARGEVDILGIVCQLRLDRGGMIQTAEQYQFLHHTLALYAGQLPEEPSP

[6] = biological target: T2, Tyrosine-protein phosphatase non-receptor type 22 (Homo sapiens, UniProt Q9Y2R2); type: functional
T2 sequence (Q9Y2R2 whole entry): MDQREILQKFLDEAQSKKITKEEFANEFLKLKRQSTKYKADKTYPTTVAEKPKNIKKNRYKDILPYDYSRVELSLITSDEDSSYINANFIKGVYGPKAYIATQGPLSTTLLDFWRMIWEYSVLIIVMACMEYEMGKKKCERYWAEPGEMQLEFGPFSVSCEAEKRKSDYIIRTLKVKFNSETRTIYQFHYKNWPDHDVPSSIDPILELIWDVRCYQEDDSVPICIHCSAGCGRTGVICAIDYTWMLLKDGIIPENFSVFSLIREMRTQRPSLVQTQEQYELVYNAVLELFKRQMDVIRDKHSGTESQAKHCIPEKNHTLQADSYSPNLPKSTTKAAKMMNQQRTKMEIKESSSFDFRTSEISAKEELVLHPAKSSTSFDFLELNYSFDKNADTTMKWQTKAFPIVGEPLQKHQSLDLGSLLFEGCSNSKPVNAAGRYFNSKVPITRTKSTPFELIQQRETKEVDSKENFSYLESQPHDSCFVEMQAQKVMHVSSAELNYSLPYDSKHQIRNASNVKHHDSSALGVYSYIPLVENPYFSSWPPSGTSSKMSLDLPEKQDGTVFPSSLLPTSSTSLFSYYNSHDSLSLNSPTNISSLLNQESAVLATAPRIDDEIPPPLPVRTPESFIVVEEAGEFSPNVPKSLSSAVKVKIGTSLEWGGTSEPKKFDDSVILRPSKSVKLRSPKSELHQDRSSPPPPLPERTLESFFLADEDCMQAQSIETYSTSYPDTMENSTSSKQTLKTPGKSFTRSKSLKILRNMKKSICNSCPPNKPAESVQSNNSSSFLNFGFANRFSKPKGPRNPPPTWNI

[7] = biological target: T2, Tyrosine-protein phosphatase non-receptor type 22; type: functional; remark: listed apart in the source
[8] = insulin promoter down-regulators in MIN6 cells, imaging, high-content screening, mouse beta cells (AID 1628); type: functional
[9] = tested on: Streptococcus sp. 'group A'; assay: growth inhibition of control SK(-) GAS strain, dose response, counter-screen for streptokinase expression inhibitor project, luminescence, kanamycin, BacTiterGlo, confirmation (AID 1900); type: functional, organism-based
[10] = cytotoxicity in MIN6 insulinoma cells, dose response, cytotoxicity control, cell-based, mouse insulinoma (AID 2122); type: functional;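 also: confirmatory high-throughput counterscreen run to flag cytotoxic compounds; mouse MIN-6 beta cells carrying an insulin promoter eGFP reporter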
[11] = tested on: Streptococcus; assay: Group A Streptococcus viability loss, dose response, counter-screen for streptokinase expression inhibitor project, luminescence, BacTiterGlo (AID 1915); type: functional, organism-based;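 also: potency for reduction of bacterial viability or growth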
[12] = Luminescence Cell-Based Dose Retest to Confirm Inhibitors of Cancer Stem Cells. [Related pubchem assays (depositor defined):AID2717, AID2721]; type: functional; details: Homo sapiens
[13] = tested on: HEK293; assay: inhibitors of LMP1-driven NF-kB reporter, dose response, cell-based, HEK293, luciferase, cherry-pick (AID 588343); type: functional; details: Homo sapiens
[14] = tested on: Vero; assay: cells; type: functional, cell-based; details: Chlorocebus sabaeus
[15] = tested on: INS1; assay: beta cell apoptosis inhibitors, cytokine rescue, dose response, luminescence, retest (AID 449756); type: functional, cell-based; details: Rattus norvegicus, INS1;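 also: cell death triggered by IL-1 beta plus TNF-alpha plus IFN-gamma mixture; protective hits raise ATP signal compared with cytokine alone wells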
[16] = tested on: Vero; assay: cells; type: functional; details: Chlorocebus sabaeus
[17] = tested on: HEK293; assay: cells; details: Homo sapiens
[18] = tested on: HEK293; assay: cells; details: Homo sapiens; remark: listed apart in the source
[19] = HEp-2 cell cytotoxicity, dose response, cytotoxicity control for RSV inhibitor project, HTS (AID 2410); type: functional; details: human respiratory syncytial virus
[20] = biological target: Induced myeloid leukemia cell differentiation protein Mcl-1 (Homo sapiens, UniProt Q07820); type: functional
Sequence of Induced myeloid leukemia cell differentiation protein Mcl-1 (Q07820 whole entry): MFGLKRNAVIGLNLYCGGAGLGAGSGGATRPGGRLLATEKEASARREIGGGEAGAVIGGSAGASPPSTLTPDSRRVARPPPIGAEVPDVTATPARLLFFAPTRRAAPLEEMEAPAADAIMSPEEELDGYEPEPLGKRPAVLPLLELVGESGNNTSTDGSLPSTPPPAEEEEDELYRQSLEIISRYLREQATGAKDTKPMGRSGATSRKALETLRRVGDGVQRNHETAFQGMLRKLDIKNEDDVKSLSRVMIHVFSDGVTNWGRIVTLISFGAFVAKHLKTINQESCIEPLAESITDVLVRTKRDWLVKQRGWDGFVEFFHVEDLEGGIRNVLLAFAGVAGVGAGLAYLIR

[21] = biological target: T3, Endoribonuclease toxin MazF (Escherichia coli K-12, UniProt P0AE70); assay: MazF toxin RNase activators, dose response, biochemical, fluorescence, single-stranded RNA substrate, uHTS hits (AID 588481); type: functional
T3 sequence (P0AE70 whole entry): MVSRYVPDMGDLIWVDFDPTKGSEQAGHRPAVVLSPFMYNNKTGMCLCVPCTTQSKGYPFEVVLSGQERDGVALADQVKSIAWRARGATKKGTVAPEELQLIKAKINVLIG

[22] = biological target: T3, Endoribonuclease toxin MazF; assay: fluorescent RNA oligo signal without MazF, dose response, counter-screen for MazEF activator project, biochemical, fluorescence, single-stranded RNase substrate (AID 588502); type: functional
[23] = biological target: T4, Rac GTPase-activating protein 1 (Homo sapiens, UniProt Q9H0H5); assay: MgcRacGAP GTPase-activating activity inhibitors, confirmation, biochemical, ADP Hunter fluorescence, primary and confirmatory (AID 624330); type: functional
T4 sequence (Q9H0H5 whole entry): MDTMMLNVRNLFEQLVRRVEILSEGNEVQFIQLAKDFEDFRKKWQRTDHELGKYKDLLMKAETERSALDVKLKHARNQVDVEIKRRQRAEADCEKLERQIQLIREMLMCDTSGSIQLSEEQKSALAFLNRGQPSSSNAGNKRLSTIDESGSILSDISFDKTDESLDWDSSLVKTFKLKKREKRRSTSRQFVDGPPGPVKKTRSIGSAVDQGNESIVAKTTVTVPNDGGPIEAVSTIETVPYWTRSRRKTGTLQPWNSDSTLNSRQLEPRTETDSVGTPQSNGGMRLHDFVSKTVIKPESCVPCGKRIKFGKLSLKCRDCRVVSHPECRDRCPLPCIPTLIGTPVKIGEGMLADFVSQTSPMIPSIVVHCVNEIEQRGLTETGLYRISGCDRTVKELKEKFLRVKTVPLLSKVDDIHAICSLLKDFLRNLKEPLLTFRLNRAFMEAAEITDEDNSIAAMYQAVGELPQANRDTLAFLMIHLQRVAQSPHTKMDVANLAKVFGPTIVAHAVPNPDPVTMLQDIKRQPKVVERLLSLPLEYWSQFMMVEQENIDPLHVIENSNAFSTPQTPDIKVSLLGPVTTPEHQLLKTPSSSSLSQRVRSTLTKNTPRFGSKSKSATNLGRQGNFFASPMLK

Sequence of Bifunctional protein GlmU (P9WMN3 whole entry): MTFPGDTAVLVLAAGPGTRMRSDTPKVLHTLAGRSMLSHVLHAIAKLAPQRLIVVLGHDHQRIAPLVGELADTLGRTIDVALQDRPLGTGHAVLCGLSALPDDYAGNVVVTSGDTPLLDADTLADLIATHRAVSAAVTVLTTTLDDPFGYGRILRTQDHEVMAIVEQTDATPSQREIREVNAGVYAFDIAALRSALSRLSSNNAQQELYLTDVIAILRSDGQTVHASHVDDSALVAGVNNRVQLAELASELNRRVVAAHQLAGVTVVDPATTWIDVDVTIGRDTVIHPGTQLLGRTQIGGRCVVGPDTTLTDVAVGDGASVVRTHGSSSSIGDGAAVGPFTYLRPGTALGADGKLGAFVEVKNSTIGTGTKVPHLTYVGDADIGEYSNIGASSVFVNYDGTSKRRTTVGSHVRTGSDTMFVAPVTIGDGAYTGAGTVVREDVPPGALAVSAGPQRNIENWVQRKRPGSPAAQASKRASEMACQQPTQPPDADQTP

O=C1NC(=O)C(=Cc2ccc(Sc3ccccc3)o2)C(=O)N1
active: IC50 [1] 369 µM | EC50 [2] 11.2 µM | AC50 [3] 10.6 µM | IC50 [4] > 100 µM

Cc1ccc(-n2c(=O)c3sccc3n(CC(=O)NCC3CCCO3)c2=O)cc1F (stereo not given)
inactive: IC50 [5] > 79.4 µM | IC50 [6] > 79.4 µM | IC50 [7] > 79.4 µM

COc1ccc(O)c(/C=N/Nc2nc(Nc3ccccc3)nc(-n3nc(C)cc3C)n2)c1
inactive: EC50 [17] > 59.6 µM | EC50 [18] > 59.6 µM
active: IC50 [8] 1.67 µM | EC50 [9] 1.07 µM | IC50 [10] 0.878 µM | EC50 [11] 2.16 µM | AC50 [12] 4.75 µM | AC50 [13] 10.7 µM | IC50 [14] > 12.5 µM | AC50 [15] 1.01 µM | CC50 [16] 11.8 µM

O=c1oc2ccccc2cc1-c1csc(Nc2ccc(O)cc2)n1
active: CC50 [19] > 50 µM | IC50 [8] 2.81 µM | IC50 [10] 4.07 µM | IC50 [20] 2.76 µM | IC50 [23] 70.1 µM
inactive: EC50 [21] > 99 µM | EC50 [22] > 99 µM
